This passage reports Kb and melting point results from patent publication US10577332B2, “Tetrazole derivatives” (Hoffmann-La Roche Inc., priority 2015, dated 2020).

Structures are written as SMILES.

One data set concerns the target T1, human EAAT3 (Homo sapiens, UniProt P43005).
T1 construct: expressed in transfected cells
T1 sequence (P43005 1-524): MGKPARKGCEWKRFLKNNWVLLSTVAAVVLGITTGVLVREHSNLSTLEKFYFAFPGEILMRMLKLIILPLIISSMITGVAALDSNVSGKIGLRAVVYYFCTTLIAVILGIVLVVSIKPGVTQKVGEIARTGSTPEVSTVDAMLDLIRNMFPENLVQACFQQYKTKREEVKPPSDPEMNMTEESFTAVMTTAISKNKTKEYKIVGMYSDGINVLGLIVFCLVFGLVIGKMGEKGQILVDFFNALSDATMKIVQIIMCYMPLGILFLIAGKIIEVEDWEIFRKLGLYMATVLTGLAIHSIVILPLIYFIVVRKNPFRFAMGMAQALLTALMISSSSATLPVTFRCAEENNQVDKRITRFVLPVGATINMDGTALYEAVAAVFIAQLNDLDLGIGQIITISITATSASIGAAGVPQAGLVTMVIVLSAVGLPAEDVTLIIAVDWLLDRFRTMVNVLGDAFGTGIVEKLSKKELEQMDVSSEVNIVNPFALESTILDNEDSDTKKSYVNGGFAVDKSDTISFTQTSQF
Kind of data set: FLIPR Membrane Potential (FMP) assay. Format: cell-based. The note with it: HEK-293 cells stably expressing human EAAT3; antagonist applied 15 min before L-glutamate at EC80; Kb by Cheng-Prusoff from IC50. The gist of the method:
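HEK-293 cells stably expressing human EAAT3, loaded with membrane-potential dye 1 h at 37 °C in Krebs buffer pH 7.4. Antagonists added 15 min before L-glutamate at EC80; peak fluorescence minus basal read on FLIPR at room temperature. Kb derived from IC50 via Cheng-Prusoff.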

What is called Kb is the affinity of an antagonist, worked out from how it opposes an agonist. The melting point is the temperature, or range, at which the solid turns liquid. Regarding `CC(C)(CO)NC(=O)c1cc(-c2ccc(Cl)cc2)cc(-n2nnnc2C(F)(F)F)c1` [Example 76, 3-(4-Chlorophenyl)-N-(1-hydroxy-2-methylpropan-2-yl)-5-[5-(trifluoromethyl)-tetrazol-1-yl]-benzamide], the melting point came out at 89 °C. The molecule further displayed a Kb at human EAAT3 of 300 nM.
`CCC(C)(C)NC(=O)c1cc(-c2ccc(Cl)cc2)cc(-n2nnnc2C(C)(C)C)c1` [Example 90, 3-(5-tert-Butyltetrazol-1-yl)-5-(4-chlorophenyl)-N-(2-methylbutan-2-yl)-benzamide] showed a melting point of 119 °C. At human EAAT3, this molecule yielded a Kb of 170 nM.
For `Cc1ccc(-c2cc(C(=O)NC(C)(C)C(F)(F)F)cc(-n3nnnc3C(C)C)c2)cc1` [Example 19, 3-(4-Methylphenyl)-5-(5-propan-2-yltetrazol-1-yl)-N-(1,1,1-trifluoro-2-methylpropan-2-yl)-benzamide] the same measures were 79 °C and 230 nM.
For `CC(C)c1nnnn1-c1cc(C(=O)NC(C)(C)C#N)cc(-c2ccc(Cl)cc2)c1` [Example 101, 3-(4-Chlorophenyl)-N-(2-cyanopropan-2-yl)-5-(5-propan-2-yltetrazol-1-yl)-benzamide] the same measures were 107 °C and 205 nM.
In the same order, the values of `Cc1ccc(-c2cc(C(=O)NC(C)(C)CO)cc(-n3nnnc3C(C)C)c2)cc1` [Example 14, N-(1-Hydroxy-2-methylpropan-2-yl)-3-(4-methylphenyl)-5-(5-propan-2-yltetrazol-1-yl)-benzamide] are 75 °C and 650 nM.
`CC(C)(C)c1nnnn1-c1cc(C(=O)NC(C)(C)C(F)(F)F)cc(-c2ccc(F)c(F)c2)c1` [Example 122, 3-(5-tert-Butyltetrazol-1-yl)-5-(3,4-difluorophenyl)-N-(1,1,1-trifluoro-2-methylpropan-2-yl)-benzamide]: the melting point came out at 221.5 °C. The same molecule yielded a Kb on human EAAT3 of 360 nM.
